Test results reported in patent US6518282B1, “4-Arylpiperidine derivatives for the treatment of pruritus” (Pfizer Inc., priority 1999, dated 2003).

Test system: hind leg scratching behaviour induced in rats by the administration of a known pruritogenic agent
Settings: rats challenged s.c. with 5-methoxytryptamine hydrochloride (4 mg/3 mL/kg); test compound by subcutaneous injection in aqueous micelle formulation; scratching score totalled after 25 minutes vs control group
Experimental: The compounds of the invention are evaluated for their activity as antipruritic agents by measuring their ability to inhibit the hind leg scratching behaviour induced in rats by the administration of a known pruritogenic agent. […] The test is performed as follows:
Male Wistar rats (approximately 150 g body weight) are challenged with a pruritogen by subcutaneous injection of 5-methoxytryptamine hydrochloride (4 mg/3 mL/kg) dissolved in physiological saline into the scruff of the neck. At this dose a constant and quantifiable hindleg scratching response lasting up to 90 minutes is obtained.
The test compound is administered to the test animals by subcutaneous injection in an aqueous micelle formulation. The test compound is prepared in the following manner. […] The compounds can be administered pre- or post-challenge or may be administered at the same time as the pruritogenic challenge.
After the pruritogen challenge has been administered, hindleg scratching is scored for each animal by recording the presence or absence of scratching during each 30 second interval as 1 or 0 scored respectively. The score for each animal is totalled after 25 minutes (maximum score 50).

Q: For `CCOCCN1CC[C@@](C)(c2cccc(O)c2)[C@H](C)C1` (racemic) [Example 5], which anti-pruritic activity is on record?
A: Its anti-pruritic activity is “display anti-pruritic activity”.
